# How the values were obtained:
# ΔF508 CFTR [1] = target: T1, ΔF508 CFTR (Homo sapiens, UniProt P13569, DEL508-508); experiment: Screening protocol: surface expression of 3HA-tagged ΔF508 CFTR in BHK cells (anti-HA immunofluorescence plate assay); type: cell-based; design: expressed in transfected cells; host or cells: BHK cells; conditions: for EC50: concentrations between 100 μM and 1 pM, FIG. 2
# Description: BHK cells expressing 3HA-tagged ΔF508 CFTR between passages 5-8 were seeded in 96-well plates (Corning half area, black-sided, clear bottom) at 15,000 cells per well and incubated with culture medium for 24 h at 37° C. […] The remaining 16 wells on each plate were used for control conditions. Cells were fixed in a 2% Para-formaldehyde solution, washed with PBS, and blocked with PBS containing 5% fetal bovine serum (FBS) for 1 h at 4° C.
# Blocking solution was replaced with 15 μl of primary antibody solution containing 1% FBS and mouse monoclonal anti-HA antibody (1:150 dilution, Sigma) in PBS. The plates were sealed and left at 4° C. overnight. After three washes with 100 μl PBS, cells were incubated for 1 h with 15 μl of secondary antibody solution containing 1% FBS and anti-mouse IgG conjugated with FITC (1:100 dilution, Sigma) in PBS. Cells were again washed three times with 100 μl of PBS and analyzed in a plate reader (Analyst™ HT96.384, Biosystems) (488 nm excitation, 510 nm emission). Hits were defined as those compounds giving fluorescence at least three standard deviations higher than untreated controls. The mean fluorescence of four untreated wells was used as the background signal when calculating deviations of the 80 compound-treated wells. Hits were then cherry-picked into reservoir plates and re-tested in duplicate using the same assay. Compounds that consistently give signals that were three standard deviations above untreated controls and were not intrinsically fluorescent were considered validated and studied further.
# F508del-CFTR = target: T2, F508del-CFTR (Homo sapiens, UniProt P13569, DEL508-508); experiment: Immunofluorescence/confocal microscopy: cell surface CFTR (overlap with wheat germ agglutinin) in BHK cells expressing F508del-CFTR; type: cell-based; conditions: 10 μM, 24 hours, FIG. 3
# T2 construct: expressed in transfected cells; host or cells: BHK cells
# T2 sequence (P13569 with tags, fused parts or gaps DEL508-508): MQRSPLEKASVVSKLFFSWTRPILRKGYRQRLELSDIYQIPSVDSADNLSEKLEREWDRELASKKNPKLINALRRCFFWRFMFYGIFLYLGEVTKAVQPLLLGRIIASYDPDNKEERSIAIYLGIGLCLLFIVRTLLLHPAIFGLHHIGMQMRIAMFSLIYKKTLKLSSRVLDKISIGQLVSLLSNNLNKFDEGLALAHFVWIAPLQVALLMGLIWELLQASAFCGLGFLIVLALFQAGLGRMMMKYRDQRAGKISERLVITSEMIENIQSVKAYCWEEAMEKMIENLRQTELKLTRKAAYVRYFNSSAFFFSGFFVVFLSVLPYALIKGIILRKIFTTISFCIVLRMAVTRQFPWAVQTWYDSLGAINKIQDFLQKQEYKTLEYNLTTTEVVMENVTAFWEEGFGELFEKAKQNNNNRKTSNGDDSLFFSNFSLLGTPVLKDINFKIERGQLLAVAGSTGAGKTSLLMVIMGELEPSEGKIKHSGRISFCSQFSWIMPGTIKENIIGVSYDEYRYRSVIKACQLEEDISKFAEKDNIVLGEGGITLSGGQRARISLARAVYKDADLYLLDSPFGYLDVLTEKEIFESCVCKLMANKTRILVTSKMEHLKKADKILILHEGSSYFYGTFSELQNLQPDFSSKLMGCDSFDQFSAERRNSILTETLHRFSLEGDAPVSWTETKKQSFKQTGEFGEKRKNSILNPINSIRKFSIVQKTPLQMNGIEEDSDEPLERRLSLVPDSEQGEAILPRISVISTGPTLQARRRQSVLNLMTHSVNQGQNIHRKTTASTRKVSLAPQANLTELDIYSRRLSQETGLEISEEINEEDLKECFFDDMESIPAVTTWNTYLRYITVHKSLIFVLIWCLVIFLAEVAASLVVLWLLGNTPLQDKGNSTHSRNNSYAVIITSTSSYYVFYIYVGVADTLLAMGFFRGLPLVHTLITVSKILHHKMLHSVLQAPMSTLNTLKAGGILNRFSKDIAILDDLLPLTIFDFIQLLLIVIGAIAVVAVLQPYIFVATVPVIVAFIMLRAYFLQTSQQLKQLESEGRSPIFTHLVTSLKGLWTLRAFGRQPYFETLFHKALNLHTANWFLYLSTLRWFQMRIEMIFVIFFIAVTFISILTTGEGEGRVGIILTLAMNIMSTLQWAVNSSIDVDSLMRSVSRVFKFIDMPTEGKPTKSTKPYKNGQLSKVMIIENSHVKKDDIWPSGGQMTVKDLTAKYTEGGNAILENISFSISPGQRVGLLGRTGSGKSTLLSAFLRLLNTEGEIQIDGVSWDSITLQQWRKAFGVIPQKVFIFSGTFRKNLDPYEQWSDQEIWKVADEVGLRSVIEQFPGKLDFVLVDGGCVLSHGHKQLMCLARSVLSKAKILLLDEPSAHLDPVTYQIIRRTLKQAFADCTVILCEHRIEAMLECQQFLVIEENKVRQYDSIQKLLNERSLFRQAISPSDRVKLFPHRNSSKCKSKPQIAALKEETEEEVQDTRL
# Description: BHK cells expressing F508del-CFTR were treated with 10 μM of the latonduines for 24 hours and then immunostained for CFTR and imaged by confocal microscopy (photomicrograph data not shown).
# Cells were seeded onto 1 cm diameter glass coverslips (5000 per coverslip) and incubated overnight, then treated with compound and fixed in 2% Para formaldehyde. After fixation, cells were blocked using (5% FBS in PBS) for 1 hour at 4° C. The coverslips were then washed in PBS and incubated with primary antibody solution (1% FBS in PBS with 1:200 dilution mouse anti-CFTR antibody (Chemicon) for 2 hours at room temperature (0.05% Tween-20 was added to the blocking solution when staining of intracellular CFTR was required). Coverslips were washed four times in PBS and probed with secondary antibody solution (1% FBS in PBS plus goat anti-mouse Alexa 568 conjugated antibody at 1:1000 dilution) for 1 h at room temperature in the dark. The cells were then washed three times with PBS. The coverslips were then mounted on slides using an antifade mounting solution (Permamount) for confocal microscopy.
# Analysis was done using the ImageJ system using 120-150 cells per sample in six fields. […]
# The cell surface was identified using wheat germ agglutinin and the amount of cell surface CFTR measured (FIG. 3). […]
# [2] = system: panel of human cancer lines; experiment: Cytotoxicity assays against a panel of human cancer lines; type: cell-based
# panel of protein kinases = experiment: Enzyme inhibition against a panel of protein kinases; type: biochemical
# ΔF508 CFTR [3] = target: T1, ΔF508 CFTR; experiment: Immunoblotting analysis of biosynthetic processing of ΔF508-CFTR in BHK cells; type: cell-based; design: expressed in transfected cells; host or cells: BHK cells
# Description: The effects of the latonduines on the biosynthetic processing of ΔF508-CFTR, latonduine treatment was assayed by immunoblotting analysis (FIGS. 4A and B).
# Cell lysates were quantitated by Bradford assay (BioRad) and separated by SDS-PAGE (6% polyacrylamide gels) and analyzed by Western blotting. Western blots were blocked using 5% skimmed milk in PBS, then were probed overnight at 4° C. with a primary anti-CFTR antibody at a dilution of 1:1000 monoclonal mouse antibody (Chemicon). The blots were washed four times in PBS before the addition of the secondary HRP-conjugated anti-mouse antibody, at a dilution of 1:5000 (Amersham) for one hour at room temperature. The blots were washed five times in PBS and probed for chemiluminescence (Pierce). All samples were run with equal protein loading as determined using the Bradford assay (Biorad). Densitometry of the immunoblots were performed using the ImageJ program.
# ΔF508 CFTR [4] = target: T1, ΔF508 CFTR; experiment: Iodide efflux assay in CFBE cells expressing ΔF508-CFTR; type: cell-based; design: endogenous in cells; host or cells: CFBE cells (human lung epithelial cells from a CF patient); conditions: CFBE cells (human lung epithelia of a cystic fibrosis patient); FIG. 5B
# Description: Experiments were performed by hand or with a robotic liquid handling system (BioRobot 8000, Qiagen, USA) using Qiagen 4.1 software. Cells were cultured in 24-well plates until they reached confluence in order to perform parallel experiments and comparison analysis. After treatment or not with a test compound, the medium of each well was replaced with 1 ml of iodide loading buffer (in mM: 136 NaI, 3 KNO3, 2 Ca(NO3)2, 11 glucose and 20 Hepes pH 7.4) for 1 hour at 37° C. to permit the I− to reach equilibrium. At the beginning of each experiment, the loading buffer was removed by aspiration and cells were washed eight times with efflux buffer (same as loading buffer except that NaI was replaced with 136 mM NaNO3) to remove extracellular I^− in each well. The loss of intracellular I^− was determined by removing the medium with efflux buffer every 1 min for up to 11 min. The first four aliquots were recovered at 1-minute intervals in an empty 24-well plate and used to establish a stable baseline in efflux buffer alone. […] The iodide concentration of each aliquot was determined using an iodide-sensitive electrode (Orion Research Inc., Boston, Mass., USA or Ecomet) and converted to iodide content (i.e. the amount of iodide released during the 1 min interval). […]
# T1 sequence (P13569 with tags, fused parts or gaps DEL508-508): as above
Compound,"response in the screening protocol (surface expression of ΔF508 CFTR) (ΔF508 CFTR [1]; 24-hour treatment, 10 μM, FIGS. 1 and 6)","cell surface CFTR, % of the amount of wild-type CFTR plasma membrane signal (F508del-CFTR) [%]",cytotoxicity [2],enzyme inhibition (panel of protein kinases),EC50 (ΔF508 CFTR [1]) [nM],"surface expression, % of that observed in cells expressing wild-type CFTR (ΔF508 CFTR [3]; F508del-CFTR, stated in Example III)","share of F508del-CFTR that was complex-glycosylated (ΔF508 CFTR [3]; cells treated with the compound, densitometry of immunoblot)","functional ΔF508-CFTR ion channels, iodide efflux (ΔF508 CFTR [4])"
Nc1ncc2c(n1)-c1c([nH]c(Br)c1Br)C(=O)NC2 [isolatonduine],positive response,–,–,–,–,–,–,–
Nc1ncc2c(n1)CNC(=O)c1[nH]c(Br)c(Br)c1-2 [latonduine A],–,29,inactive,inactive,0.4,about 25%,Up to 30%,–
CCOC(=O)c1nc(N)nc2c1-c1c([nH]c(Br)c1Br)C(=O)NC2 [latonduine B ethyl ester],–,51,inactive,inactive,0.5,–,–,can act as correctors of ΔF508-CFTR giving functional ion channels on the cell surface
COC(=O)c1nc(N)nc2c1-c1c([nH]c(Br)c1Br)C(=O)NC2 [latonduine B methyl ester],–,–,inactive,inactive,25,–,–,–
Nc1nc2c(c(C(=O)O)n1)-c1c([nH]c(Br)c1Br)C(=O)NC2 [latonduine B],–,–,inactive,inactive,–,–,–,–

# Source: US20100280004A1, “SMALL MOLECULE CORRECTORS OF DELTAF508 CFTR TRAFFICKING” (The University of British Columbia and The Royal …, priority 2007, published 2010)
